One assay addresses T1, human Nav1.7 (Homo sapiens, UniProt Q15858).
T1 construct: expressed in transfected cells
Briefly: PatchXpress sodium current measurement, inactivated state block, Nav1.7. The following applies: channels stably expressed in HEK 293 cells, double-pulse protocol, 22° C., read-out: potency for the Nav 1.7 sodium ion channel (1.7=). Type of assay: cell-based. Here is the method:
(§1) Cell Based Assays for Nav 1.7 and Nav 1.5 Activity
(§2) Compounds were tested on human Nav1.7 and Nav1.5 channels stably expressed in HEK 293 cells.
(§3) Sodium Current Measurements on the PatchXpress 7000:
(§4) To measure inactivated state block of sodium channels, test compounds were characterized in an automated PatchXpress® assay (Molecular Devices) using a double-pulse protocol on human Nav1.7 and Nav1.5 channels stably expressed in HEK 293 cells. Cells were held at a potential 20 mV negative to the potential at which ˜50% of the channels are inactivated. A 8000 ms pre-pulse 7 mV positive to the potential at which ˜50% of the channels are inactivated was given followed by a hyperpolarizing 2 ms pulse to −120 mV and a 20 ms test pulse to −20 mV. The protocol was applied to cells in the absence, presence of compound and after washout. The temperature of PatchXpress® instruments was maintained at 22° C. The following recording solutions were used. Internal solution (mM): 30 CsCl, 5 HEPES, 10 EGTA, 120 CsF, 5 NaF, 2 MgCl2, pH 7.3 with CsOH. External solution (mM): 120 NMDG, 40 NaCl, 1 KCl, 0.5 MgCl2, 5 HEPES, 2.7 CaCl2, pH 7.5 with NMDG-OH. Estimated IC50 values were calculated based on at least two compound concentrations tested. For all electrophysiology experiments, offline analysis was used to correct for current rundown and to determine percent inhibition as a function of drug concentration. IC50 values were determined by fitting to the Hill equation.

A further assay addresses T2, human Nav1.5 (Homo sapiens, UniProt Q14524).
T2 construct: expressed in transfected cells
Briefly: PatchXpress sodium current measurement, inactivated state block, Nav1.5. The assay is classed as cell-based. The following applies: determined by PatchXpress measurement, HEK 293 cells. Here is the method: as §1, §2, §3, §4

T2 sequence (Q14524 whole entry): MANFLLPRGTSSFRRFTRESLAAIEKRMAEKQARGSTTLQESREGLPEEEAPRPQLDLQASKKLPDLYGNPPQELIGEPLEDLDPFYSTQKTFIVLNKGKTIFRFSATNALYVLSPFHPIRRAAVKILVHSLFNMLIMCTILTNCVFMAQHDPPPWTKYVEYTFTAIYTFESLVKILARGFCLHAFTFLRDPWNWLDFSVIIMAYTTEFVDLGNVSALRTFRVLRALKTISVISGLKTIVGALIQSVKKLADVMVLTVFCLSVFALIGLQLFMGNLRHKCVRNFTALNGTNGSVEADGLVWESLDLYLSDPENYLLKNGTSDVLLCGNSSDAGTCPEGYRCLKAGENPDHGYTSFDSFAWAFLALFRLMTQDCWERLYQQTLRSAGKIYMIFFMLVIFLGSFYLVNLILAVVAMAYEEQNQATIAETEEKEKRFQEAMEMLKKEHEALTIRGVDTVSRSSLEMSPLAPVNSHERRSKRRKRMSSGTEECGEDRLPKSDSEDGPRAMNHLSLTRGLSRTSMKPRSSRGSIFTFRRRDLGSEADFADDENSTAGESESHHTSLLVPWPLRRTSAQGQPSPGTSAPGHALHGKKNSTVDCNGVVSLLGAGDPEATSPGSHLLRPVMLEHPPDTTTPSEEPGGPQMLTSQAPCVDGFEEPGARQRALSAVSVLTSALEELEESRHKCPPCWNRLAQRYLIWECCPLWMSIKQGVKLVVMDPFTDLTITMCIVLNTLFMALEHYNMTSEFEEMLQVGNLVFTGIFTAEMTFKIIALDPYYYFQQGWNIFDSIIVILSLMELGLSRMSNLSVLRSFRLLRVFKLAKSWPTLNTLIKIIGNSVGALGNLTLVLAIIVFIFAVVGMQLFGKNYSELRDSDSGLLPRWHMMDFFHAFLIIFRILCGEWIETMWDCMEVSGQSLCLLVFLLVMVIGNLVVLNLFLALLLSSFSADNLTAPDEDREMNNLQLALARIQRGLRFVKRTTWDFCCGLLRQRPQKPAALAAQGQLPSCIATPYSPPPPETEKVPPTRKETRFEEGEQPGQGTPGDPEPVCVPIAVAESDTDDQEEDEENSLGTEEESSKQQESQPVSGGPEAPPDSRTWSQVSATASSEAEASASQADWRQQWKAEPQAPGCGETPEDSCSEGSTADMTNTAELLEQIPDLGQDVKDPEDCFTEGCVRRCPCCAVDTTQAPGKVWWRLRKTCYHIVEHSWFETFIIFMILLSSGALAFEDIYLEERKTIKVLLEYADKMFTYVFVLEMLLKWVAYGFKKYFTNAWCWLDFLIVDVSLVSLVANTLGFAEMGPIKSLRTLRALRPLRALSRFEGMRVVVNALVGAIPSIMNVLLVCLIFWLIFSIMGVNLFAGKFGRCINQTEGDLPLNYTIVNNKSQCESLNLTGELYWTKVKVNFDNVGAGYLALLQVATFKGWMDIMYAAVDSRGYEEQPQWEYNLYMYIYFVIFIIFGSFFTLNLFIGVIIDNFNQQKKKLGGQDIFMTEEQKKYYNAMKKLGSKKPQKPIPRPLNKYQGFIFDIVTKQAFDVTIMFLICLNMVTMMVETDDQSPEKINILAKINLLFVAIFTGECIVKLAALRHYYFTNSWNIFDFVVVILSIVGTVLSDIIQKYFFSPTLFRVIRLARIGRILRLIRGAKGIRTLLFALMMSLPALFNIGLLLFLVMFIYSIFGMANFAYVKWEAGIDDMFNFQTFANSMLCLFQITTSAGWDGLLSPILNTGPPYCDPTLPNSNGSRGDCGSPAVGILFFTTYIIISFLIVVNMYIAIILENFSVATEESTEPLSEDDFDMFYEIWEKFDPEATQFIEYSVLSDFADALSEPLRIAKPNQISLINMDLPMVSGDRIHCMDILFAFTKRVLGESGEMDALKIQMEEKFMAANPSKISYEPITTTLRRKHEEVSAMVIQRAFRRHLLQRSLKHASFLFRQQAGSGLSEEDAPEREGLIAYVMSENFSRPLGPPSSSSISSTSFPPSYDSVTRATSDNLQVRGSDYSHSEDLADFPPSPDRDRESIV
T1 sequence (Q15858 whole entry): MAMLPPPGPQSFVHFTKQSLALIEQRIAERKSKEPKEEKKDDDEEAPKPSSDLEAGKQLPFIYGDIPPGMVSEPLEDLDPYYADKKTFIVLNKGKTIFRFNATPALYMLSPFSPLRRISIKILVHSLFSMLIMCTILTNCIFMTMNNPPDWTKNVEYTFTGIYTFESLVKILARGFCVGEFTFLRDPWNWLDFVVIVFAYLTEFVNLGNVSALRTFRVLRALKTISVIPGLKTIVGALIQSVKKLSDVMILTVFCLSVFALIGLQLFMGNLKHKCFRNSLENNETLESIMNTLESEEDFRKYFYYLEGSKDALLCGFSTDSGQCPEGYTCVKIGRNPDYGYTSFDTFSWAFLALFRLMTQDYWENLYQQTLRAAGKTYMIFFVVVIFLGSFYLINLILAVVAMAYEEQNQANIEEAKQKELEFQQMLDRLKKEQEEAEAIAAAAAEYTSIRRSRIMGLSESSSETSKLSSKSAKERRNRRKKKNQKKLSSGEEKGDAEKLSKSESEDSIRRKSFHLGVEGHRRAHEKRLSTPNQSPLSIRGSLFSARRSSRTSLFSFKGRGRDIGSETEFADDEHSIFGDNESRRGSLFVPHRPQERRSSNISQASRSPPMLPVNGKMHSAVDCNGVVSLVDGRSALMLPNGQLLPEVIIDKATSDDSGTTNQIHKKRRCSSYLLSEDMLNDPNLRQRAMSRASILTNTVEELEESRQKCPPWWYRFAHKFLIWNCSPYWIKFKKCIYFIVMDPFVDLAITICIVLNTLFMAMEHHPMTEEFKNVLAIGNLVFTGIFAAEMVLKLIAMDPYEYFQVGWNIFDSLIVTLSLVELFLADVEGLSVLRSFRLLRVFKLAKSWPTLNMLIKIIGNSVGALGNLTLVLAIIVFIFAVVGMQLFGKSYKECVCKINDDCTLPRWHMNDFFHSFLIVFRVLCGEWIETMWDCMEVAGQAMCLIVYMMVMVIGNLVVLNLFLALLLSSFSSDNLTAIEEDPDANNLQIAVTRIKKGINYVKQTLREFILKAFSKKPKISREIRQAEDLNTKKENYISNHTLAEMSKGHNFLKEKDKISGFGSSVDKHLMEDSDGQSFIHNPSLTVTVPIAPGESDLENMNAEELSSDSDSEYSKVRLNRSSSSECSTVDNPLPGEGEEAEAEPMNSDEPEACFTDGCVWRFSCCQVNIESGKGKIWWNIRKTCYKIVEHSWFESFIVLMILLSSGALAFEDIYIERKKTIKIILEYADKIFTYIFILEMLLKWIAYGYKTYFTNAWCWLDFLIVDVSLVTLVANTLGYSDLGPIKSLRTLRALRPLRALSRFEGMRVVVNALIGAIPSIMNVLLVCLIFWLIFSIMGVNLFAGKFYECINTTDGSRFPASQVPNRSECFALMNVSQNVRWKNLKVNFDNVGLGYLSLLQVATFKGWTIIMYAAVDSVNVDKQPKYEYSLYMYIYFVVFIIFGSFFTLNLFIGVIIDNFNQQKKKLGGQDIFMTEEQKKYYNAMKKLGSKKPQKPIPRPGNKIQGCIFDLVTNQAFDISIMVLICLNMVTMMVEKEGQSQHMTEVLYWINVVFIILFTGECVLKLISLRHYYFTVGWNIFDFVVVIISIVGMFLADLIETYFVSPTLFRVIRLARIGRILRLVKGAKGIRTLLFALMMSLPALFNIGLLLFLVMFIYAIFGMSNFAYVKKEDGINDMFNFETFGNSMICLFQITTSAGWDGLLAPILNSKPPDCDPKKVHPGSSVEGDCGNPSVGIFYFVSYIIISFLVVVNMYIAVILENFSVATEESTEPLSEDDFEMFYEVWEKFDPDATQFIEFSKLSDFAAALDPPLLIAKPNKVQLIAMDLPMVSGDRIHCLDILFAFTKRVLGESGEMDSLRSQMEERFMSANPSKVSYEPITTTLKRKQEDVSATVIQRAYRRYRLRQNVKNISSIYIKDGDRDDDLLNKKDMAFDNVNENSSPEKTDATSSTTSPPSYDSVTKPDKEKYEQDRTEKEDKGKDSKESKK

In the case of `C[C@H](c1ccccc1CN)n1c(=O)oc2cc(S(=O)(=O)Nc3cccc(F)n3)c(F)cc21` [Ex9-1, (R)-3-(1-(2-(aminomethyl)phenyl)ethyl)-5-fluoro-N-(6-fluoropyridin-2-yl)-2-oxo-2,3-dihydrobenzo[d]oxazole-6-sulfonamide], the IC50 at human Nav1.7 stood at 24 nM. The “ratio of Nav 1.5:Nav 1.7 potency” value on human Nav1.5 is 1525.
Turning to `C[C@H](c1ccccc1CN(C)C)n1c(=O)oc2cc(S(=O)(=O)Nc3cccc(F)n3)c(F)cc21` [Ex9-2, 3-[(1R)-1-{2-[(dimethylamino)methyl]phenyl}ethyl]-5-fluoro-N-(6-fluoropyridin-2-yl)-2-oxo-2,3-dihydro-1,3-benzoxazole-6-sulfonamide], the IC50 at human Nav1.7 stood at 124 nM. Further, at human Nav1.5, the “ratio of Nav 1.5:Nav 1.7 potency” value is on record as 84.
Regarding `C[C@H](c1ccccc1CN1CCCCC1)n1c(=O)oc2cc(S(=O)(=O)Nc3cccc(F)n3)c(F)cc21` [Ex9-3, 5-fluoro-N-(6-fluoropyridin-2-yl)-2-oxo-3-{(1R)-1-[2-(piperidin-1-ylmethyl)phenyl]ethyl}-2,3-dihydro-1,3-benzoxazole-6-sulfonamide], on human Nav1.7, the IC50 was 300 nM. Besides, the “ratio of Nav 1.5:Nav 1.7 potency” value at human Nav1.5 turned out to be 68.
For `C[C@H](c1ccccc1C1CNC1)n1c(=O)oc2cc(S(=O)(=O)Nc3cccc(F)n3)c(F)cc21` [Ex10-3, (R)-3-(1-(2-(Azetidin-3-yl)phenyl)ethyl)-5-fluoro-N-(6-fluoropyridin-2-yl)-2-oxo-2,3-dihydrobenzo[d]oxazole-6-sulfonamide], in that order: 39 nM and 1306.
As to `C[C@H](c1ccccc1C1CN(S(C)(=O)=O)C1)n1c(=O)oc2cc(S(=O)(=O)Nc3cccc(F)n3)c(F)cc21` [Ex11-1], the IC50 at human Nav1.7 turned out to be 213 nM. The “ratio of Nav 1.5:Nav 1.7 potency” value on human Nav1.5 is listed as 34.
As for `C[C@H](c1ccccc1C1(O)CNC1)n1c(=O)oc2cc(S(=O)(=O)Nc3cccc(F)n3)c(F)cc21` [Ex12-4, (R)-5-Fluoro-N-(6-fluoropyridin-2-yl)-3-(1-(2-(3-hydroxyazetidin-3-yl)phenyl)ethyl)-2-oxo-2,3-dihydrobenzo[d]oxazole-6-sulfonamide], the IC50 at human Nav1.7 worked out at 400 nM. Besides, the “ratio of Nav 1.5:Nav 1.7 potency” value on human Nav1.5 worked out at 75.
On the same counts, the results for `C[C@H](c1ccccc1C1(F)CNC1)n1c(=O)oc2cc(S(=O)(=O)Nc3cccc(F)n3)c(F)cc21` [Ex12-6, (R)-5-Fluoro-3-(1-(2-(3-fluoroazetidin-3-yl)phenyl)ethyl)-N-(6-fluoropyridin-2-yl)-2-oxo-2,3-dihydrobenzo[d]oxazole-6-sulfonamide] are 46 nM and 648.
As to `Cc1cccc([C@@H](C)n2c(=O)oc3cc(S(=O)(=O)Nc4cccc(F)n4)c(F)cc32)c1Br` [Ex14-4, 3-[(1R)-1-(2-Bromo-3-methylphenyl)ethyl]-5-fluoro-N-(6-fluoropyridin-2-yl)-2-oxo-2,3-dihydro-1,3-benzoxazole-6-sulfonamide], the IC50 on human Nav1.7 was found to be 596 nM. Moreover, the “ratio of Nav 1.5:Nav 1.7 potency” value at human Nav1.5 worked out at 27.
Turning to `C[C@H](c1cccc2c1CNCC2)n1c(=O)oc2cc(S(=O)(=O)Nc3ccc(F)cn3)c(F)cc21.Cl` [Ex15-5, (R)-5-Fluoro-N-(5-fluoropyridin-2-yl)-2-oxo-3-(1-(1,2,3,4-tetrahydroisoquinolin-8-yl)ethyl)-2,3-dihydrobenzo[d]oxazole-6-sulfonamide hydrochloride], at human Nav1.7, the IC50 stood at 535 nM. Also, at human Nav1.5, the “ratio of Nav 1.5:Nav 1.7 potency” value was 108.
With `C[C@H](c1ccccc1C1CNC1)n1c(=O)oc2cc(S(=O)(=O)Nc3ccc(F)cn3)c(F)cc21` [Ex15-6, 3-[(1R)-1-(2-azetidin-3-ylphenyl)ethyl]-5-fluoro-N-(5-fluoropyridin-2-yl)-2-oxo-2,3-dihydro-1,3-benzoxazole-6-sulfonamide], at human Nav1.7, the IC50 was found to be 145 nM. The “ratio of Nav 1.5:Nav 1.7 potency” value at human Nav1.5 amounted to 207.
Turning to `C[C@H](c1cccc2c1CNCC2)n1c(=O)oc2cc(S(=O)(=O)Nc3cc(Cl)ccn3)c(F)cc21` [Ex16-8, N-(4-Chloropyridin-2-yl)-5-fluoro-2-oxo-3-[(1R)-1-(1,2,3,4-tetrahydroisoquinolin-8-yl)ethyl]-2,3-dihydro-1,3-benzoxazole-6-sulfonamide], the IC50 on human Nav1.7 turned out to be 134 nM. Also, the “ratio of Nav 1.5:Nav 1.7 potency” value at human Nav1.5 was determined as 88.
In the case of `Cc1cc2c(cc1S(=O)(=O)Nc1cccc(F)n1)oc(=O)n2[C@H](C)c1cccc2c1CNCC2` [Ex17-4, (R)—N-(6-Fluoropyridin-2-yl)-5-methyl-2-oxo-3-(1-(1,2,3,4-tetrahydroisoquinolin-8-yl)ethyl)-2,3-dihydrobenzo[d]oxazole-6-sulfonamide], the IC50 at human Nav1.7 is 34 nM. The “ratio of Nav 1.5:Nav 1.7 potency” value at human Nav1.5 stood at 200.
Regarding `Cc1cc2c(cc1S(=O)(=O)Nc1cccc(F)n1)oc(=O)n2[C@H](C)c1ccccc1CN` [Ex17-7, 3-{(1R)-1-[2-(aminomethyl)phenyl]ethyl}-N-(6-fluoropyridin-2-yl)-5-methyl-2-oxo-2,3-dihydro-1,3-benzoxazole-6-sulfonamide], on human Nav1.7, the IC50 was found to be 49 nM. On human Nav1.5, the “ratio of Nav 1.5:Nav 1.7 potency” value is recorded as 147.
As for `Cc1cc2c(cc1S(=O)(=O)Nc1cccc(F)n1)oc(=O)n2[C@H](C)c1ccccc1C1=CCNCC1` [Ex17-8, N-(6-fluoropyridin-2-yl)-5-methyl-2-oxo-3-{(1R)-1-[2-(1,2,3,6-tetrahydropyridin-4-yl)phenyl]ethyl}-2,3-dihydro-1,3-benzoxazole-6-sulfonamide], the IC50 at human Nav1.7 stood at 6 nM. Moreover, the “ratio of Nav 1.5:Nav 1.7 potency” value at human Nav1.5 was determined as 1452.
`Cc1cc2c(cc1S(=O)(=O)Nc1cccc(F)n1)oc(=O)n2[C@H](C)c1ccccc1C1CCNCC1` [Ex18-3, (R)—N-(6-Fluoropyridin-2-yl)-5-methyl-2-oxo-3-(1-(2-(piperidin-4-yl)phenyl)ethyl)-2,3-dihydrobenzo[d]oxazole-6-sulfonamide]: the IC50 at human Nav1.7 amounted to 13 nM. Also, the “ratio of Nav 1.5:Nav 1.7 potency” value at human Nav1.5 was 233.
Take `Cc1cc2c(cc1S(=O)(=O)Nc1cccc(F)n1)oc(=O)n2[C@H](C)c1cccc(Br)c1` [Ex18-6, 3-[(1R)-1-(3-bromophenyl)ethyl]-N-(6-fluoropyridin-2-yl)-5-methyl-2-oxo-2,3-dihydro-1,3-benzoxazole-6-sulfonamide]: the IC50 at human Nav1.7 was found to be 57 nM. At human Nav1.5, the “ratio of Nav 1.5:Nav 1.7 potency” value came to 30.
As for `Cc1cc2c(cc1S(=O)(=O)Nc1cccc(F)n1)oc(=O)n2[C@H](C)c1cccc(Br)c1C` [Ex18-7, 3-[(1R)-1-(3-bromo-2-methylphenyl)ethyl]-N-(6-fluoropyridin-2-yl)-5-methyl-2-oxo-2,3-dihydro-1,3-benzoxazole-6-sulfonamide], the IC50 on human Nav1.7 was determined as 69 nM. The “ratio of Nav 1.5:Nav 1.7 potency” value on human Nav1.5 was determined as 90.
As for `Cc1cc2c(cc1S(=O)(=O)Nc1cccc(F)n1)oc(=O)n2[C@H](C)c1cccc(C)c1Br` [Ex18-8, 3-[(1R)-1-(2-bromo-3-methylphenyl)ethyl]-N-(6-fluoropyridin-2-yl)-5-methyl-2-oxo-2,3-dihydro-1,3-benzoxazole-6-sulfonamide], the IC50 at human Nav1.7 was 107 nM. Also, the “ratio of Nav 1.5:Nav 1.7 potency” value at human Nav1.5 is recorded as 102.
`Cc1cccc([C@@H](C)n2c(=O)oc3cc(S(=O)(=O)Nc4cccc(F)n4)c(F)cc32)c1CN` [Ex19-1, 3-{(1R)-1-[2-(aminomethyl)-3-methylphenyl]ethyl}-5-fluoro-N-(6-fluoropyridin-2-yl)-2-oxo-2,3-dihydro-1,3-benzoxazole-6-sulfonamide]: the IC50 on human Nav1.7 was 9 nM. Further, the “ratio of Nav 1.5:Nav 1.7 potency” value at human Nav1.5 was 603.

Values taken from US9624208B2, “Benzoxazolinone compounds with selective activity in voltage-gated sodium channels” (Merck Sharp & Dohme Corp., priority 2012, dated 2017).
